The values below come from patent publication US20230386615A1, “BINDING SITE IN TYPE 1 RYANODINE RECEPTOR” (The Trustees of Columbia University in the City of New York, priority 2021, published 2023).

For assay [1], the target named is T1, RyR1-WT (Oryctolagus cuniculus, UniProt P11716).
T1 construct: Each fragment was subcloned into a full length RyR1 construct in pcDNA3.1 vector; expressed in transfected cells; host or cells: HEK293 (also 293T/17) cells, pcDNA3.1
Format: binding, rabbit.

Assay [2] concerns the target T2, RyR1-W996A (Oryctolagus cuniculus, UniProt P11716, W996A).
T2 construct: Each fragment was subcloned into a full length RyR1 construct in pcDNA3.1 vector; expressed in transfected cells; host or cells: HEK293 (also 293T/17) cells, pcDNA3.1
Format: binding, rabbit.

The target of assay [3] is T3, RyR1 (Oryctolagus cuniculus, UniProt P11716).
T3 construct: from tissue; host or cells: rabbit skeletal muscle sarcoplasmic reticulum microsomes
As to the kind of experiment: S107 binding in the presence of increasing concentrations of ATP or ADP. The arrangement: species or system rabbit.

Assay [4] has as its target T4, RyR1-W882A (Oryctolagus cuniculus, UniProt P11716, W882A). To be noted: radiolabeled ATP.
The test system of assay [5] is HEK293 cells expressing mutant RyR1. As to the kind of experiment: Ca2+ imaging, caffeine-induced Ca2+ release. Format: cell-based, rabbit. To be noted: both mutants, 1 mM H2O2, 10 mM caffeine.
The target of assay [6] is T3, RyR1. As to the kind of experiment: 3H-S107 radioligand binding, skeletal SR microsomes untreated or treated with PKA and H2O2. Also noted: species or system rabbit. How it is done:
For PKA-phosphorylated channel experiments, […] of microsomes were in vitro phosphorylated with 40 units of PKA catalytic subunit (SigmaAldrich, Cat #P2645) for 30 min at 30° C. in the presence of the following buffer: 50 mM Tris/PIPES pH 7.0, 8 mM MgCl2, 1 mM MgATP, and 1 mM EGTA. The samples were then spun by centrifuge for 10 min at 100,000×g. The resulting pellets were washed four times with wash buffer (300 mM sucrose, 10 mM imidazole, pH 7.4) and aliquots were frozen in liquid nitrogen and stored at −80° C. Oxidation of RyR1 was induced by incubating microsomes with 1 mM H2O2 for 30 min at room temperature prior to washing.
Titrative ^3H-S107 binding, performed in the absence and presence of 10 mM NaATP, was initiated by addition of ^3H-S107 (10-10,000 nM final concentration) to 0.1 mg skeletal sarcoplasmic reticulum (SR) microsomes in binding buffer (50 mM Tris-HCl, pH 7.5, 150 mM NaCl, 25 mM MgCl2). […] All samples were incubated at room temperature for 30 min ^3H-S107 binding was stopped by addition of ice-cold binding buffer prior to filtration through GF/B Whatman filters pre-equilibrated with 0.015% PE. Filters were washed 3 times with 5 mL of wash buffer (10 mM MOPS, 200 mM NaCl, pH 7.4), dried, and counted. Data were normalized to ^3H-ryanodine binding. […].

Assay [7] has as its target T5, purified RyR1 (Oryctolagus cuniculus, UniProt P11716).
T5 construct: RyR1 was purified from rabbit skeletal muscle; from tissue
As to the kind of experiment: 3H-S107 binding to purified RyR1 in absence and presence of 10 mM ATP. Also noted: species or system rabbit.

The target of assay [8] is T1, RyR1-WT. As to the kind of experiment: 3H-S107 binding, recombinant RyR1 HEK293 microsomes treated with PKA and H2O2. The arrangement: species or system rabbit.
For assay [9], the target named is T2, RyR1-W996A. Described as above. The arrangement: species or system rabbit.
Assay [10] deals with T4, RyR1-W882A. The description is as above. Also noted: Each fragment was subcloned into a full length RyR1 construct in pcDNA3.1 vector; expressed in transfected cells; host or cells: HEK293 (also 293T/17) cells, pcDNA3.1; species or system rabbit. To be noted: W882A mutation.
[11] abbreviates: first section of TABLE 5, 10 mM ATP added.
[12] abbreviates: third section of TABLE 5, ADP in place of ATP.

For orientation: Kd means the constant that tells how readily two partners part at equilibrium.

Compound `Nc1ncnc2c1ncn2[C@@H]1O[C@H](COP(=O)(O)OP(=O)(O)O)[C@@H](O)[C@H]1O` [ADP, adenosine diphosphate] displayed a stoichiometry in assay [1] of 12 molecules per channel. Also, the “ADP binding stoichiometry, in words” value in assay [2] (RyR1-W996A) is “greater than one molecule per channel”. Further, the “competition with S107 binding” value in assay [3] is recorded as “significant inhibitory effect”.
On to `Nc1ncnc2c1ncn2[C@@H]1O[C@H](COP(=O)(O)OP(=O)(O)OP(=O)(O)O)[C@@H](O)[C@H]1O` [ATP, adenosine triphosphate], for which the “ATP binding, in words” value in assay [2] (W996A mutant) is given as “significantly reduced”; in assay [4], “maintained, although slightly reduced”.
Take `COc1ccc2c(c1)CN(Cc1ccc(C(=O)O)cc1)CCS2` [Compound 1, 4-[(7-methoxy-2,3-dihydro-1,4-benzothiazepin-4(5H)-yl)methyl]benzoic acid]: the “caffeine-induced calcium release after oxidation” value in [5] is “unaffected”.
For `COc1ccc2c(c1)CN(C)CCS2` [Compound S107], the Bmax is 3.7 ± 0.2 mol S107/mol RyR1 in assay [6] (PKA/H2O2 treated microsomes); 0.4 ± 0.1 mol S107/mol RyR1 in assay [6] (Untreated microsomes); 3.0 ± 0.2 mol S107/mol RyR1 in assay [7] (10 mM ATP); 0.4 ± 1.0 mol S107/mol RyR1 in assay [7] (No ATP); 3.5 ± 0.3 mol S107/mol RyR1 in [8] (setting [11]); 3.6 ± 0.3 mol S107/mol RyR1 in assay [8] (setting [12]). The Bmax in [9] (RyR1-W996A, third section of TABLE 5, ADP in place of ATP) turned out to be 2.0 ± 0.2 mol S107/mol RyR1. The equilibrium dissociation constant (Kd) in [6] (PKA/H2O2 treated microsomes) was determined as 155 ± 9 nM; in assay [6] (Untreated microsomes) it was 150 ± 7 nM; in [7] (10 mM ATP) it was 152 ± 7 nM; in assay [7] (No ATP) it was 147 ± 6 nM; in [8] (setting [11]) it was 200 ± 11 nM; in [8] (setting [12]), 188 ± 12 nM. Moreover, in [9], the Kd was 250 ± 10 nM. Moreover, in [10], the “3H-S107 binding to the channel, in words” value is given as “abolished”.
